Test results taken from patent publication US8507010B2, “Compositions comprising quinazoline derivatives” (Shanghai Allist Pharmaceuticals, Inc., priority 2008, dated 2013).

Columns and labels:
[1] = in vivo; details: male, SD, rat
Experimental: Intragastric administration (ig): 16 healthy SD rats (Shanghai Super-B&K Laboratory Animal Corp. Ltd., grade SPF), male, weighted 200-250 g, randomly divided into four groups, were each administered intragastrically with a drug: the compound prepared according to Example 1 (21.68 mg/kg), crystalline form A, crystalline form B, or crystalline form C (30 mg/kg) of p-toluenesulfonate of said compound. The blood samples were collected at 0.5 h, 1.0 h, 1.5 h, 2.0 h, 3.0 h, 5.0 h, 7.0 h, 9.0 h, 12 h, and 24 h after administration, which were then isolated to prepare the plasma. The concentrations of the drugs in the plasma were determined by means of liquid phase chromatography/tandem mass spectrometer (Agilent 1200LC/6410B), and the concentration-time curve was obtained.

[2] = Study of stability at high temperature (60° C.); format: physicochemical; details: p-toluenesulfonate; for Purity (%): 60° C.; for thermal stability (in words): stored at 60° C. for 1 month
[3] = Study of light stability; format: physicochemical; details: p-toluenesulfonate; for light stability (in words): illumination 45001×±5001× for 1 month; for Purity (%): illumination 45001×±5001×
Source text: The purity of the crystalline form A was detected at day 0, day 10 and day 30, thereby deducing light stability of crystalline form A. The light stability of each of crystalline forms B and C is obtained by the same approach.

[4] = Study of hygroscopicity (92.5% humidity); format: physicochemical; details: p-toluenesulfonate; for stability in highly humid surroundings (in words): 92.5% humidity for 1 month; for Purity (%): 92.5% humidity
[5] = test system: human epidermoid squamous cancer cell A431; assay: Tumor-inhibitory effect on human epidermoid squamous cancer cell A431 grafted to a BALB/cA nude mouse; format: in vivo; details: 13 successive days, 23 days after grafting
Experimental: A well-developed solid tumor A431 was selected and incised into several uniform pieces with the size of 2-3 mm under sterile conditions, with one piece being grafted subcutaneously to the right armpit of each of the BALB/cA nude mice using a trocar. 7 days after the grafting, the mice were grouped randomly and were intragastrically administrated through mouth for 13 successive days. The long axis (a) and the short axis (b) of the tumors were measured with a vernier caliper every 4 days. According to the formula V=ab^2/2, the volume of the tumor (mm^3) could be calculated. The tested animals were neck-off killed 23 days after the grafting, and anatomized to obtain the tumors. The tumors were weighed, and the tumor inhibition rate was calculated.
(§1) Human epidermoid squamous carcinoma A431 grafted to BALB/cA nude mouse is an animal model having high expression of EGFR (erbB-1), and human ovarian cancer SKOV-3 grafted to BALB/cA nude mouse is an animal model having high expression of erbB-2.

[6] = test system: human ovarian cancer SKOV-3; assay: Tumor-inhibitory effect on human ovarian cancer SKOV-3 grafted to a BALB/cA nude mouse; format: in vivo; details: for RTV: RTV=Vt/V0; for Volume of tumor (mm^3) V0: prior to the administration
Experimental: A SKOV-3 tumor tissue in vigorous growth period was selected and incised into uniform pieces with the size of about 1.5 mm^3, which was grafted subcutaneously to the right armpit of a BALB/cA nude mouse (Shanghai Institute of Materia Medica, Chinese Academy of Sciences, grade SPF) with a trocar under sterile conditions. The diameters of the grafted tumors on the nude mouse were measured with a vernier caliper. The animals were grouped randomly when the tumors grew to a size of 80 to 100 mm^3. The tested animal groups were intragastrically administered through mouth as mentioned above once a day for 3 consecutive weeks. The positive control drug MMC (Mitomycin) was intravenously administered once on the first day with a dose of 5 mg/kg (0.9% sterile sodium chloride solution). The negative control group was administered with 0.5% CMC-Na (Carboxymethyl Cellulose-Sodium) with a dose of 0.2 mL/per mouse. The long axis (a) and the short axis (b) of the tumors were measured twice every week and the nude mice were weighed at the same time. According to the formula V=ab^2/2, the volume (mm^3) of the tumor could be calculated. Relative tumor volume (RTV) was calculated from the measurement result (according to the formula: RTV=Vt/V0, wherein V0 is the tumor volume measured upon the grouping time of administration, and Vt is the tumor volume measured each time). The relative tumor proliferation rate T/C(%) was chosen as the index of evaluation of anti-tumor activity, by the formula: T/C(%)=(TRTV/CRTV)×100 TRTV: RTV of the treated group; CRTV: RTV of the negative control group
as §1

[7] = 50 mg/kg ig once a day for 3 weeks
[8] = 100 mg/kg ig once a day for 3 weeks
[9] = 200 mg/kg ig once a day for 3 weeks
[10] = 5 mg/kg iv once on the first day

## C=CC(=O)Nc1ccc2ncnc(Nc3ccc(OCc4cccc(F)c4)c(Cl)c3)c2c1.Cc1ccc(S(=O)(=O)O)cc1 [Crystalline form B, N-{4-[3-chloro-4-(3-fluoro-benzyloxy)phenylamino]quinazolin-6-yl}-acrylamide p-toluenesulfonate]
[1]
  absolute bioavailability: 8.76%
[1]; po, 30 mg/kg
  AUC(0-t): 978 ng·h/mL
  Cmax: 253 ng/mL
  T1/2: 1.23 h
  Tmax: 1.25 h
[2]; day 0
  Purity (%): 99.26%
[2]; day 10
  Purity (%): 99.21%
[2]; day 30
  Purity (%): 99.11%
[2]
  thermal stability (in words): excellent thermal stability
[3]
  light stability (in words): excellent light stability
[3]; day 0
  Purity (%): 99.26%
[3]; day 10
  Purity (%): 99.26%
[3]; day 30
  Purity (%): 99.24%
[4]
  stability in highly humid surroundings (in words): very stable
[4]; day 0
  Purity (%): 99.26%
[4]; day 10
  Purity (%): 99.25%
[4]; day 30
  Purity (%): 99.24%

## C=CC(=O)Nc1ccc2ncnc(Nc3ccc(OCc4cccc(F)c4)c(Cl)c3)c2c1.Cc1ccc(S(=O)(=O)O)cc1 [Crystalline form A, N-{4-[3-chloro-4-(3-fluoro-benzyloxy)phenylamino]quinazolin-6-yl}-acrylamide p-toluenesulfonate]
[1]; absolute bioavailability
  bioavailability: 8.75%
[1]; po, 30 mg/kg
  AUC(0-t): 977 ng·h/mL
  Cmax: 187 ng/mL
  T1/2: 1.49 h
  Tmax: 2.83 h
[5]; 25 mg/kg ig
  Tumor-inhibitory rate %: 29.99%
  Weight of animals (g) (tumor-off): 21.58 ± 2.18 g
  Weight of tumor (g) x ± SD: 0.79 ± 0.20 g
[5]; 50 mg/kg ig
  Tumor-inhibitory rate %: 38.67%
  Weight of animals (g) (tumor-off): 22.87 ± 3.96 g
  Weight of tumor (g) x ± SD: 0.69 ± 0.17 g
[5]; 100 mg/kg ig
  Tumor-inhibitory rate %: 43.63%
  Weight of animals (g) (tumor-off): 22.13 ± 1.83 g
  Weight of tumor (g) x ± SD: 0.64 ± 0.23 g
[6]; [7]
  T/C (%): 53.0%
  RTV: 5.1 ± 1.7
[6]; 50 mg/kg ig once a day, after administration for consecutive 3 weeks
  Volume of tumor (mm^3) V21: 421 ± 89 mm^3
[6]; 50 mg/kg ig
  Volume of tumor (mm^3) V0: 79 ± 28 mm^3
[6]; [8]
  T/C (%): 45.0%
  RTV: 4.3 ± 1.3
[6]; 100 mg/kg ig once a day, after administration for consecutive 3 weeks
  Volume of tumor (mm^3) V21: 345 ± 88 mm^3
[6]; 100 mg/kg ig
  Volume of tumor (mm^3) V0: 87 ± 41 mm^3
[6]; [9]
  T/C (%): 36.9%
  RTV: 3.5 ± 0.8
[6]; 200 mg/kg ig once a day, after administration for consecutive 3 weeks
  Volume of tumor (mm^3) V21: 303 ± 72 mm^3
[6]; 200 mg/kg ig
  Volume of tumor (mm^3) V0: 86 ± 13 mm^3
[6]; SKOV-3 grafted to BALB/cA nude mouse, high expression of erbB-2, p-toluenesulfonate
  inhibitory effect on the tumor (in words): significant inhibitory effect on the tumor
[2]; day 0
  Purity (%): 98.64%
[2]; day 10
  Purity (%): 98.64%
[2]; day 30
  Purity (%): 98.64%
[2]
  thermal stability (in words): excellent thermal stability
[3]
  light stability (in words): good light stability
[3]; day 0
  Purity (%): 98.64%
[3]; day 10
  Purity (%): 98.16%
[3]; day 30
  Purity (%): 97.24%
[4]
  stability in highly humid surroundings (in words): very stable
[4]; day 0
  Purity (%): 98.64%
[4]; day 10
  Purity (%): 98.62%
[4]; day 30
  Purity (%): 98.62%

## CO[C@@]12[C@H](COC(N)=O)C3=C(C(=O)C(C)=C(N)C3=O)N1C[C@@H]1N[C@@H]12 [MMC, Mitomycin, reference compound]
[6]; [10]
  RTV: 3.1 ± 0.5
  Volume of tumor (mm^3) V0: 83 ± 13 mm^3
[6]; 5 mg/kg iv once on the first day, T/C=(TRTV/CRTV)×100
  T/C (%): 32.0%
[6]; 5 mg/kg iv once on the first day, after 3 weeks
  Volume of tumor (mm^3) V21: 258 ± 77 mm^3

## C=CC(=O)Nc1ccc2ncnc(Nc3ccc(OCc4cccc(F)c4)c(Cl)c3)c2c1.Cc1ccc(S(=O)(=O)O)cc1 [Crystalline form C, N-{4-[3-chloro-4-(3-fluoro-benzyloxy)phenylamino]quinazolin-6-yl}-acrylamide p-toluenesulfonate]
[1]
  absolute bioavailability: 5.17%
[1]; po, 30 mg/kg
  Tmax: 2.25 h
[1]; po, 30 mg/kg, AUC0-t
  AUC(0-t): 577 ng·h/mL
[1]; po, 30 mg/kg, Cmax
  Cmax: 161 ng/mL
[1]; po, 30 mg/kg, T1/2
  half-life: 1.27 h
[2]; day 0
  Purity (%): 99.03%
[2]; day 10
  Purity (%): 97.08%
[2]; day 30
  Purity (%): 97.55%
[2]
  thermal stability (in words): good thermal stability
[3]
  light stability (in words): good light stability
[3]; day 0
  Purity (%): 99.03%
[3]; day 10
  Purity (%): 98.54%
[3]; day 30
  Purity (%): 98.42%
[4]
  stability in highly humid surroundings (in words): quite stable
[4]; day 0
  Purity (%): 99.03%
[4]; day 10
  Purity (%): 98.27%
[4]; day 30
  Purity (%): 98.08%
